Data taken from US9365512B2, “Isoindoline derivatives, pharmaceutical compositions containing them, and their use in therapy” (AbbVie Deutschland GmbH & Co. KG, priority 2012, dated 2016).

Columns and labels:
[1] = Metabolic stability in human liver microsomes (microsomal clearance); format: in vitro ADME; conditions: 0.5 μM test substance, 0.25 mg microsomal protein/ml, pH 7.4, 37° C., NADPH
Procedure: The metabolic stability of a compound can be measured for example by incubating a solution of this compound with liver microsomes from particular species (for example rat, dog or human) and determining the half-life of the compound under these conditions (RS Obach, Curr Opin Drug Discov Devel. 2001, 4, 36-44). It is possible in this connection to conclude from an observed longer half-life that the metabolic stability of the compound is improved. The stability in the presence of human liver microsomes is of particular interest because it makes it possible to predict the metabolic degradation of the compound in the human liver. Compounds with increased metabolic stability (measured in the liver microsome test) are therefore probably also degraded more slowly in the liver. The slower metabolic degradation in the liver may lead to higher and/or longer-lasting concentrations (active levels) of the compound in the body, so that the elimination half-life of the compounds of the invention is increased. Increased and/or longer-lasting active levels may lead to a better activity of the compound in therapeutic treatment. […]
Metabolic stability was determined as follows:
0.5 μM test substance was preincubated together with human liver microsomes (0.25 mg of microsomal protein/ml) in 0.05 M potassium phosphate buffer of pH 7.4 in microtiter plates at 37° C. for 5 min. […] The samples were frozen until analyzed. The remaining concentration of undegraded test substance was determined by LC MSMS. The half-life (T½) was determined from the gradient of the signal of test substance/unit time plot, allowing to calculate the half-life of the test substance, assuming first order kinetics, from the decrease in the concentration of the compound with time. The microsomal clearance (mCl) was calculated from mCl=ln 2/T½/(content of microsomal protein in mg/ml)×1000 (modified from references: Di, The Society for Biomolecular Screening, 2003, 453-462; Obach, DMD, 1999 vol 27. N 11, 1350-1359).

human GlyT1c transporter = molecular target: T1, human GlyT1c transporter (Homo sapiens, UniProt P48067); assay: Radioligand binding assay using recombinant CHO cell membranes expressing human GlyT1; conditions: read-out: radioligand binding Kiapp
T1 construct: expressed in transfected cells; host or cells: CHO cells (recombinant; membranes)
T1 sequence (P48067 1-706): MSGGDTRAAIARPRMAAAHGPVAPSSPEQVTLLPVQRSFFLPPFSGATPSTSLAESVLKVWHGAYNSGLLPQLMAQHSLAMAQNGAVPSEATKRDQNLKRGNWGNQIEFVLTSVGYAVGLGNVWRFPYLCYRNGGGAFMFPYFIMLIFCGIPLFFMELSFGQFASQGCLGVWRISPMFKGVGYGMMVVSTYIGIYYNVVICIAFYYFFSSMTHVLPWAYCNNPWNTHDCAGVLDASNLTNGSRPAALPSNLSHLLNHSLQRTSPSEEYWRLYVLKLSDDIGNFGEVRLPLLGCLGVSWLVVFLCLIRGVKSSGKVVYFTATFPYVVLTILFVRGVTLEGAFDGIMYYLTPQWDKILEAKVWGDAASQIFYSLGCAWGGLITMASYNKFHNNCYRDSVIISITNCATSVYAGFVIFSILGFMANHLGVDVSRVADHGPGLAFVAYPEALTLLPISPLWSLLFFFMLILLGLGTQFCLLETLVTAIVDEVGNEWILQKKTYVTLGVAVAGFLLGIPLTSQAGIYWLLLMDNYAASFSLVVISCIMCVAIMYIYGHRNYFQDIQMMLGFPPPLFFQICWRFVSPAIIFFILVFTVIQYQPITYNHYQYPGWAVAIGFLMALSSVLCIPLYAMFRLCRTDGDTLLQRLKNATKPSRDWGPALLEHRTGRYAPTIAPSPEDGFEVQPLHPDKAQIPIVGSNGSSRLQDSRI
Procedure: 2. Radioligand Binding Assays Using Recombinant CHO Cell Membranes Expressing Human GlyT1:
Radioligand binding to human GlyT1c transporter-expressing membranes was determined as described in Mezler et al., Molecular Pharmacology 74:1705-1715, 2008.

Row | human mCl [1] [µL/min/mg] | Ki (human GlyT1c transporter) [nM] | Compound
1 | <1 | < 100 | Cn1cnc(S(=O)(=O)NCCOc2ccc3c(c2)C(Cc2ccccc2)NC3)c1 (stereo not shown) [Example 5, N-[2-(3-Benzylisoindolin-5-yl)oxyethyl]-1-methyl-1H-imidazole-4-sulfonamide]
2 | <10 | < 100 | Cn1cc(S(=O)(=O)NCCOc2ccc3c(c2)C(Cc2ccccc2)NC3)cn1 (stereo not shown) [Example 7, N-[2-(3-Benzylisoindolin-5-yl)oxyethyl]-1-methyl-1H-pyrazole-4-sulfonamide]
